This passage reports EC50 results from patent US20090191578A1, “Canis sphingosine 1-phosphate receptor isoform 5” (MERCK & CO., INC, priority 2004, published 2009).

What is called EC50 is the concentration at which the effect is half-maximal.

For experiment [1], the target named is T1, cS1P5 receptor (Canis lupus familiaris, UniProt A0A8I3Q0H0). Nature of the experiment: S1P ligand binding assay with transfected CHO cells expressing the cS1P5 receptor. The conditions noted are these: 33P-S1P, 60 minutes at room temperature, FIG. 3. Also noted: species or system Canis (dog). The method, then:
The transfected CHO cells from Example 2 expressing the cS1P5 receptor were evaluated for the ability of the cS1P5 receptor expressed in the cells to properly integrate into the cell membrane and bind S1P.
Transfected CHO cells from Example 2 were harvested with enzyme-free dissociation solution (Specialty Media, Lavallette, N.J.). The cells were washed once in cold PBS and suspended in S1P binding buffer (50 mM HEPES-Na, pH 7.5, 5mM MgCl2, 1 mM CaCl2, 0.5% FAF-BSA). ^33P-S1P was synthesized enzymatically from γ^33P-ATP and sphingosine using a crude extract with sphingosine kinase activity in a reaction mix containing 50 mM KH2PO4, 1 mM mercaptoethanol, 1 mM Na3VO4, 25 mM KF, 2 mM semicarbazide, 1 mM Na2EDTA, 5 mM MgCl2, […], 0.1% TritonX-114, and 1 mCi γ^33P-ATP (NEN; specific activity 2000 Ci/mmol). Reaction products were extracted with butanol and ^33P-sphingosine-1-phosphate was purified by HPLC.
^33P-S1P (0.1 uCi/ml) was sonicated with 0.2 nM sphingosine-1-phosphate dissolved in binding buffer; 100 μL of the mixture was added to 100 μL cells (1×10^5). Binding was performed for 60 minutes at room temperature. […] After drying the filter plates for 30 minutes, 50 μL of MICROSCINT 20 was added to each well and binding was measured with a Packard Top Count. Non-specific binding was defined as the amount of radioactivity remaining in the presence of 200 nM cold S1P.

Experiment [2] addresses T1, cS1P5 receptor. Nature of the experiment: 35S-GTPγS binding assay with membranes from transfected CHO cells expressing the cS1P5 receptor. The experiment is classed as biochemical, Canis (dog). The conditions noted are these: 5 μM GDP, 100 pM 35S-GTPγS, one hour at room temperature, FIG. 4, read-out: EC50 (35S-GTPγS binding, coupling GTP to Gα). As for the experimental part: Functional coupling of S1P5 receptor to G proteins was measured in a ^35S-GTPγS binding assay. Membranes were prepared from transfected cells by homogenization in ice cold 20 mM HEPES pH 7.4, 10 mM EDTA using a Kinematica polytron (setting 5, for 10 seconds). Homogenates were centrifuged at 48,000×g for 15 minutes at 4° C. and the pellet suspended in 20 mM HEPES pH 7.4, 0.1 mM EDTA. Following a second centrifugation, the final pellet was suspended in 20 mM HEPES pH 7.4, 100 mM NaCl, 10 mM MgCl2. Membranes were incubated in 200 μL with 5 μM GDP, various concentrations of S1P (sonicated in 1% BSA), and 100 pM ^35S-GTPγS (NEN; specific activity 1250 Ci/mmol) in 96 well microtiter dishes. Binding was performed for one hour at room temperature, and terminated by harvesting the membranes onto GF/B filter plates with a Packard Filtermate Universal Harvester. After drying the filter plates for 30 min, 40 μL of MICROSCINT 20 was added to each well and binding was measured on a Packard Top Count scintillation counter.

Structures are written as SMILES.

For `CCCCCCCCCCCCC/C=C/[C@@H](O)[C@@H](N)COP(=O)(O)O` [S1P, sphingosine-1-phosphate], the concentration for a half-maximal effect (EC50) in experiment [1] is roughly 210 pM; in experiment [2] it was roughly 790 pM.
